The values below come from ChEMBL document CHEMBL1201862, “PubChem BioAssay data set” (2004).

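Five compound concentrations were applied to cells in 96-well plates for 48 hours; endpoints were derived by simple linear interpolation of the resulting dose-response curve. GI50 marks 50% less growth.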 Activity calls are given as the source filed them. Cut-off read from the data, not from the text of the source: active = GI50 up to about 1.1 µM and inactive = higher.

Test systems include NCI-H23; HT-29; SNB-19; RXF 393; ACHN; U-251; SR; SF-295; Malme-3M; SF-539; HOP-62; OVCAR-8; SF-268; HL-60; UACC-257; LOX IMVI; UACC-62.
Experiment in all cases: NCI anticancer screen, dose series, 48 h

For the compound `COC(=O)CCC(=O)N1CC1C` (stereo not given), the GI50 with NCI-H23, in the test with HT-29, with SNB-19, in the test on RXF 393, in the test on ACHN and in the test on U-251 was > 100 µM (inactive) throughout. The GI50 in the test with SR, in the test on SF-295, with Malme-3M, in the test with SF-539, in the test with HOP-62 and in the test on OVCAR-8 was > 100 µM (inactive) in each case. The GI50 in the test on SF-268, with HL-60, in the test on UACC-257, with LOX IMVI and with UACC-62 was > 100 µM (inactive) throughout.

For the compound `Cc1c(Cl)cccc1NC(=O)C(=O)C1C(=O)NC(=O)NC1=O`, the GI50 in the test on NCI-H23, in the test with HT-29, with SNB-19, in the test with RXF 393, in the test on ACHN and in the test on U-251 was > 100 µM (inactive) in each case. In addition, the GI50 in the test on SR, in the test on SF-295, in the test with Malme-3M, with SF-539, with HOP-62 and with OVCAR-8 was > 100 µM (inactive) in each case. Further, the GI50 with SF-268, with HL-60, with UACC-257, with LOX IMVI and in the test on UACC-62 was > 100 µM (inactive) each time.

As to `C[S+]([O-])c1ccc(COP(N)(=O)N(CCCl)CCCl)cc1` (stereo not given), the GI50 in the test with NCI-H23, with HT-29, in the test on SNB-19, in the test with RXF 393, in the test on ACHN and with U-251 was > 100 µM (inactive) each time. The GI50 in the test with SR, in the test with SF-295, in the test with Malme-3M, in the test with SF-539, in the test with HOP-62 and in the test with OVCAR-8 was > 100 µM (inactive) in each case. For the same compound, the GI50 in the test on SF-268, in the test on HL-60, in the test on UACC-257, in the test on LOX IMVI and in the test with UACC-62 was > 100 µM (inactive) throughout.

For the compound `CCOc1ccc(NC(=O)C(=O)NO)cc1`, the GI50 with NCI-H23, with HT-29, in the test on SNB-19, in the test on RXF 393, with ACHN and in the test on U-251 was > 100 µM (inactive) in each case. Besides, the GI50 with SR is 55.3 µM (inactive); in the test with SF-295, > 100 µM (inactive); in the test with Malme-3M, > 100 µM (inactive); in the test on SF-539, > 100 µM (inactive); in the test with HOP-62 it was > 100 µM (inactive); in the test on OVCAR-8, > 100 µM (inactive). The GI50 in the test with SF-268, with HL-60, in the test on UACC-257, with LOX IMVI and in the test with UACC-62 was > 100 µM (inactive) throughout.

As for `CC(=O)OC1CCCn2c1nc1c2C(=O)C(C)=C(N2CC2)C1=O` (stereo not given), the GI50 was 0.0923 µM (active) with NCI-H23; 0.208 µM (active) in the test on HT-29; 0.338 µM (active) in the test on SNB-19; 0.284 µM (active) in the test with RXF 393; 0.254 µM (active) with ACHN; 0.201 µM (active) in the test with U-251. The GI50 is 18.1 µM (inactive) with SR; 0.16 µM (active) in the test with SF-295; 0.219 µM (active) in the test with Malme-3M; 0.519 µM (active) in the test with SF-539; 0.216 µM (active) with HOP-62; 0.388 µM (active) with OVCAR-8. The GI50 with SF-268 is 0.251 µM (active); in the test on HL-60, 2.41 µM (inactive); in the test on UACC-257, 0.242 µM (active); in the test on LOX IMVI, 0.303 µM (active); with UACC-62, 0.301 µM (active).
